In US20110053773A1, “METHODS OF IMPROVING NUTRITIONAL VALUE OF PLANTS” (UNIVERSITY OF TENNESSEE RESEARCH FOUNDATION, priority 2009, published 2011):

Tests used:
[1] = system: sweet corn variety 'Incredible'; test: Sugar and key antioxidant content of sweet corn (Example 1, Table 15); assay type: in vivo, Zea mays var. rugosa; conditions: rates g ai/ha: Nicosulfuron 35, Mesotrione 105, Topramezone 18, Isoxadifen-ethyl 13, all incl. treated check with atrazine 560 g ai/ha + 1% v/v crop oil concentrate
Text: Herbicide treatments were applied in a water carrier at 23 gallons of solution per acre on a field site near Knoxville, Tenn. and Painter, Va. […] All treatments included a PRE application of atrazine plus metolachlor in order to maintain weed free conditions. In addition, all POST treatments (including the treated check) included atrazine at 560 g ai/ha and crop oil concentrate at 1% v/v. […] Sweet corn was harvested from the center two rows of each four row plot and weighed in the husk.

[2] = system: sweet corn (Zea mays var. rugosa) cultivar 'Incredible'; test: Content analysis of sweet corn ears: crude protein, amino acids, detergent fiber, fatty acids, minerals (Example 1); assay type: in vivo; conditions: POST at b59 rates; every treatment incl. check also got atrazine 560 g ai/ha + COC 1% v/v; relative to treated check (atrazine), check=0
Text: Herbicide treatments were applied in a water carrier at 23 gallons of solution per acre on a field site near Knoxville, Tenn. and Painter, Va. Treatments include the following: 1) nicosulfuron at 35 g ai/ha (Accent); 2) mesotrione at 105 g ai/ha (Callisto); 3) nicosulfuron at 35 g ai/ha+mesotrione at 105 g ai/ha (Callisto+Accent); 4) tembotrione at 92 g ai/ha+isoxadifen-ethyl at 46 g ai/ha (Laudis); 5) topramezone at 15 g ai/ha (Impact); 6) nicosulfuron at 35 g ai/ha+isoxadifen-ethyl at 9 g ai/ha (Accent Q); 7) nicosulfuron at 35 g ai/ha+isoxadifen-ethyl at 9 g ai/ha+topramezone at 15 g ai/ha (Accent Q+Impact); 8) nicosulfuron 35 g ai/ha+isoxadifen-ethyl at 9 g ai/ha+mesotrione at 105 g ai/ha (Accent Q+Callisto); 9) treated check (atrazine or Aatrex). All treatments included a PRE application of atrazine plus metolachlor in order to maintain weed free conditions. In addition, all POST treatments (including the treated check) included atrazine at 560 g ai/ha and crop oil concentrate at 1% v/v. […] Sweet corn was harvested from the center two rows of each four row plot and weighed in the husk.

basil 'Genovese' = test: Content analysis of basil: protein, minerals (Example 4, Tables 10-11); assay type: in vivo; conditions: 28 DA-A, rates g ai/ha: chlroprifos 3370, chlorothalonil 7900, paclobutrazol 9.7, mepiquat-chloride 37, Isoxadifen 16, Napthalic anhydride 527, + NIS 0.25 % v/v
Experimental: Greenhouse and laboratory studies were conducted to ascertain the tolerance and nutritional quality differences following postemergence applications of the insecticide chlorpyrifos, the fungicide chlorothalonil, the PGRs mepiquat-chloride and paclobutrazol, and the safeners napthalic anhydride and isoxadifen-ethyl on kale ‘Red Russian’ and basil ‘Genovese’. Visual injury was rated based on general phytotoxicity, chlorosis, and visual stunting and each measurement was based on a percent scale from 0 to 100 where 0 equals no visual response and 100 equals complete plant death. Kale and basil were both harvested approximately 4 weeks after treatments and plants were pooled over replicates for content analysis of crude protein, crude amino acid content, acid detergent fiber, neutral detergent fiber, total fatty acids, and/or key mineral content (including Na, Ca, P, Mg, K, Fe, Mn, Zn, and Cu). In addition, the amounts of key individual amino acids (aspartic acid, threonine, glutamic acid, proline, glycine, cysteine, valine, leucine, isoleucine, methionine, and lysine) and composite classifications of fatty acid (saturated fatty acids, monounsaturated fatty acids, polyunsaturated fatty acids) were also analyzed from these sub-samples for kale (Tables 10-14).

`COc1cc(OC)nc(NC(=O)NS(=O)(=O)c2ncccc2C(=O)N(C)C)n1` [Nicosulfuron*ACCENT, nicosulfuron] was tested, and the “Fructose, percent increase” value [1] was 48%, the “Gamma-tocopherol, percent increase” value [1] was 1% and the “Glucose, percent increase” value [1] was 35%. For the same compound, the “Lutein, percent increase” value [1] was 9%, the “Maltose, percent increase” value [1] was 23% and the “Sucrose, percent increase” value [1] was −4%. For the same compound, the “Total Sugars, percent increase” value [1] was 16%, the “Zeaxanthin, percent increase” value [1] was 9% and the “antheraxanthin, percent increase” value [1] was 15%. For the same compound, the “Acid DF” value [2] was 9 % of check, the Alanine [2] was 1 % of check and the “Amino Acid” value [2] was −1 % of check. The Aspartic ac [2] was −4 % of check, the Cysteine [2] was 0 % of check and the Glutamic ac [2] was −2 % of check. For the same compound, the Glycine [2] was −4 % of check, the Isoleucine [2] was 0 % of check and the Leucine [2] was 0 % of check. The Lysine [2] was 1 % of check, the Methionine [2] was 0 % of check and the “Neutral DF” value [2] was 4 % of check. The Proline [2] was −7 % of check, the Protein [2] was 7 % of check and the Threonine [2] was 2 % of check. For the same compound, the Valine [2] was 0 % of check, the calcium [2] was 0 % of check and the copper [2] was 0 % of check. The iron [2] was 14 % of check, the magnesium [2] was 14 % of check and the manganese [2] was 33 % of check. The mon fattyac [2] was 15 % of check, the phosphorous [2] was 6 % of check and the polyfattyac [2] was 12 % of check. For the same compound, the potassium [2] was 1 % of check, the sat fattyac [2] was 12 % of check and the sodium [2] was 21 % of check. For the same compound, the tot fattyac [2] was 13 % of check and the zinc [2] was 2 % of check.

In the case of `Cc1c(C(=O)c2cnn(C)c2O)ccc(S(C)(=O)=O)c1C1=NOCC1` [Topramezone*IMPACT, topramezone], the “Fructose, percent increase” value [1] was 63%, the “Gamma-tocopherol, percent increase” value [1] was 8% and the “Glucose, percent increase” value [1] was 40%. For the same compound, the “Lutein, percent increase” value [1] was 0%, the “Maltose, percent increase” value [1] was 8% and the “Sucrose, percent increase” value [1] was −18%. For the same compound, the “Total Sugars, percent increase” value [1] was 10%, the “Zeaxanthin, percent increase” value [1] was −8% and the “antheraxanthin, percent increase” value [1] was 23%. For the same compound, the “Acid DF” value [2] was 2 % of check, the Alanine [2] was 8 % of check and the “Amino Acid” value [2] was 7 % of check. For the same compound, the Aspartic ac [2] was 6 % of check, the Cysteine [2] was 3 % of check and the Glutamic ac [2] was 6 % of check. For the same compound, the Glycine [2] was 4 % of check, the Isoleucine [2] was 10 % of check and the Leucine [2] was 8 % of check. For the same compound, the Lysine [2] was 10 % of check, the Methionine [2] was 8 % of check and the “Neutral DF” value [2] was 7 % of check. For the same compound, the Proline [2] was 6 % of check, the Protein [2] was 8 % of check and the Threonine [2] was 12 % of check. The Valine [2] was 9 % of check, the calcium [2] was 0 % of check and the copper [2] was 0 % of check. The iron [2] was 23 % of check, the magnesium [2] was 13 % of check and the manganese [2] was 38 % of check. For the same compound, the mon fattyac [2] was 10 % of check, the phosphorous [2] was 8 % of check and the polyfattyac [2] was 9 % of check. For the same compound, the potassium [2] was 6 % of check, the sat fattyac [2] was 8 % of check and the sodium [2] was 29 % of check. The tot fattyac [2] was 9 % of check and the zinc [2] was 4 % of check.

For `CCOP(=S)(OCC)Oc1nc(Cl)c(Cl)cc1Cl` [chlroprifos], the “ADF, Percent Increase Over the Untreated Check (on a % dry matter basis)” value (basil 'Genovese') was 10 % check, the “Calcium, Percent Increase Over the Untreated Check (on a % dry matter basis)” value (basil 'Genovese') was 3 % check and the “Copper, Percent Increase Over the Untreated Check (on a % dry matter basis)” value (basil 'Genovese') was 8 % check. For the same compound, the “Iron, Percent Increase Over the Untreated Check (on a % dry matter basis)” value (basil 'Genovese') was 57 % check, the “Magnesium, Percent Increase Over the Untreated Check (on a % dry matter basis)” value (basil 'Genovese') was 21 % check and the “Manganese, Percent Increase Over the Untreated Check (on a % dry matter basis)” value (basil 'Genovese') was 12 % check. For the same compound, the “NDF, Percent Increase Over the Untreated Check (on a % dry matter basis)” value (basil 'Genovese') was 9 % check, the “Phosphorous, Percent Increase Over the Untreated Check (on a % dry matter basis)” value (basil 'Genovese') was 50 % check and the “Potassium, Percent Increase Over the Untreated Check (on a % dry matter basis)” value (basil 'Genovese') was 27 % check. For the same compound, the “Protein, Percent Increase Over the Untreated Check (on a % dry matter basis)” value (basil 'Genovese') was 32 % check, the “Sodium, Percent Increase Over the Untreated Check (on a % dry matter basis)” value (basil 'Genovese') was 25 % check and the “Soluble protein, Percent Increase Over the Untreated Check (on a % dry matter basis)” value (basil 'Genovese') was 42 % check. The “Zinc, Percent Increase Over the Untreated Check (on a % dry matter basis)” value (basil 'Genovese') was 46 % check.
